# Target: T1, NMA1982 (Neisseria meningitidis, UniProt A1KVD0)
# T1 construct: gene NMC1647
# Test: biochemical
# T1 sequence (A1KVD0 entry or part of it): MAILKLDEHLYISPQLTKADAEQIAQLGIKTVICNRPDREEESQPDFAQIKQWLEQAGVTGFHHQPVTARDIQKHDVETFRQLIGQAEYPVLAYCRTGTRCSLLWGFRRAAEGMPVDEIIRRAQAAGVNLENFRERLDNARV
compound,measurement,value
[O]=[V]([OH])([OH])[OH] [sodium orthovanadate],IC50,161 µM

# Source: PMC10491346, “Enzyme Mechanistic Studies of NMA1982, a Protein Tyrosine Phosphatase and Potential Virulence Factor in Neisseria meningitidis” (Research Square, 2023)
